# Source: ChEMBL document CHEMBL1201862, “PubChem BioAssay data set” (2004)
# Active and inactive are the calls of the source.
# Experiments:
# Cytochrome P450 2C9 = Cytochrome P450 2C9 (Homo sapiens, UniProt P11712)
# Cytochrome P450 2D6 = Cytochrome P450 2D6 (Homo sapiens, UniProt P10635);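 note: CYP2D6 member of a cytochrome P450 panel assay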
# Cytochrome P450 3A4 = Cytochrome P450 3A4 (Homo sapiens, UniProt P08684);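 note: CYP3A4 tested as one member of a cytochrome P450 panel screen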
# Fatty acid synthase [1] = molecular target: T1, Fatty acid synthase (Homo sapiens, UniProt P49327); experiment: FAS thioesterase domain inhibitors, dose response, biochemical, endpoint fluorescence intensity, uHTS hits (AID 624327); format: functional;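 note: fluorescence from hydrolysis of an O-methyl fluorescein acyl ester substrate by the enzyme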
# T1 sequence (P49327 whole entry, the tested form may be a part): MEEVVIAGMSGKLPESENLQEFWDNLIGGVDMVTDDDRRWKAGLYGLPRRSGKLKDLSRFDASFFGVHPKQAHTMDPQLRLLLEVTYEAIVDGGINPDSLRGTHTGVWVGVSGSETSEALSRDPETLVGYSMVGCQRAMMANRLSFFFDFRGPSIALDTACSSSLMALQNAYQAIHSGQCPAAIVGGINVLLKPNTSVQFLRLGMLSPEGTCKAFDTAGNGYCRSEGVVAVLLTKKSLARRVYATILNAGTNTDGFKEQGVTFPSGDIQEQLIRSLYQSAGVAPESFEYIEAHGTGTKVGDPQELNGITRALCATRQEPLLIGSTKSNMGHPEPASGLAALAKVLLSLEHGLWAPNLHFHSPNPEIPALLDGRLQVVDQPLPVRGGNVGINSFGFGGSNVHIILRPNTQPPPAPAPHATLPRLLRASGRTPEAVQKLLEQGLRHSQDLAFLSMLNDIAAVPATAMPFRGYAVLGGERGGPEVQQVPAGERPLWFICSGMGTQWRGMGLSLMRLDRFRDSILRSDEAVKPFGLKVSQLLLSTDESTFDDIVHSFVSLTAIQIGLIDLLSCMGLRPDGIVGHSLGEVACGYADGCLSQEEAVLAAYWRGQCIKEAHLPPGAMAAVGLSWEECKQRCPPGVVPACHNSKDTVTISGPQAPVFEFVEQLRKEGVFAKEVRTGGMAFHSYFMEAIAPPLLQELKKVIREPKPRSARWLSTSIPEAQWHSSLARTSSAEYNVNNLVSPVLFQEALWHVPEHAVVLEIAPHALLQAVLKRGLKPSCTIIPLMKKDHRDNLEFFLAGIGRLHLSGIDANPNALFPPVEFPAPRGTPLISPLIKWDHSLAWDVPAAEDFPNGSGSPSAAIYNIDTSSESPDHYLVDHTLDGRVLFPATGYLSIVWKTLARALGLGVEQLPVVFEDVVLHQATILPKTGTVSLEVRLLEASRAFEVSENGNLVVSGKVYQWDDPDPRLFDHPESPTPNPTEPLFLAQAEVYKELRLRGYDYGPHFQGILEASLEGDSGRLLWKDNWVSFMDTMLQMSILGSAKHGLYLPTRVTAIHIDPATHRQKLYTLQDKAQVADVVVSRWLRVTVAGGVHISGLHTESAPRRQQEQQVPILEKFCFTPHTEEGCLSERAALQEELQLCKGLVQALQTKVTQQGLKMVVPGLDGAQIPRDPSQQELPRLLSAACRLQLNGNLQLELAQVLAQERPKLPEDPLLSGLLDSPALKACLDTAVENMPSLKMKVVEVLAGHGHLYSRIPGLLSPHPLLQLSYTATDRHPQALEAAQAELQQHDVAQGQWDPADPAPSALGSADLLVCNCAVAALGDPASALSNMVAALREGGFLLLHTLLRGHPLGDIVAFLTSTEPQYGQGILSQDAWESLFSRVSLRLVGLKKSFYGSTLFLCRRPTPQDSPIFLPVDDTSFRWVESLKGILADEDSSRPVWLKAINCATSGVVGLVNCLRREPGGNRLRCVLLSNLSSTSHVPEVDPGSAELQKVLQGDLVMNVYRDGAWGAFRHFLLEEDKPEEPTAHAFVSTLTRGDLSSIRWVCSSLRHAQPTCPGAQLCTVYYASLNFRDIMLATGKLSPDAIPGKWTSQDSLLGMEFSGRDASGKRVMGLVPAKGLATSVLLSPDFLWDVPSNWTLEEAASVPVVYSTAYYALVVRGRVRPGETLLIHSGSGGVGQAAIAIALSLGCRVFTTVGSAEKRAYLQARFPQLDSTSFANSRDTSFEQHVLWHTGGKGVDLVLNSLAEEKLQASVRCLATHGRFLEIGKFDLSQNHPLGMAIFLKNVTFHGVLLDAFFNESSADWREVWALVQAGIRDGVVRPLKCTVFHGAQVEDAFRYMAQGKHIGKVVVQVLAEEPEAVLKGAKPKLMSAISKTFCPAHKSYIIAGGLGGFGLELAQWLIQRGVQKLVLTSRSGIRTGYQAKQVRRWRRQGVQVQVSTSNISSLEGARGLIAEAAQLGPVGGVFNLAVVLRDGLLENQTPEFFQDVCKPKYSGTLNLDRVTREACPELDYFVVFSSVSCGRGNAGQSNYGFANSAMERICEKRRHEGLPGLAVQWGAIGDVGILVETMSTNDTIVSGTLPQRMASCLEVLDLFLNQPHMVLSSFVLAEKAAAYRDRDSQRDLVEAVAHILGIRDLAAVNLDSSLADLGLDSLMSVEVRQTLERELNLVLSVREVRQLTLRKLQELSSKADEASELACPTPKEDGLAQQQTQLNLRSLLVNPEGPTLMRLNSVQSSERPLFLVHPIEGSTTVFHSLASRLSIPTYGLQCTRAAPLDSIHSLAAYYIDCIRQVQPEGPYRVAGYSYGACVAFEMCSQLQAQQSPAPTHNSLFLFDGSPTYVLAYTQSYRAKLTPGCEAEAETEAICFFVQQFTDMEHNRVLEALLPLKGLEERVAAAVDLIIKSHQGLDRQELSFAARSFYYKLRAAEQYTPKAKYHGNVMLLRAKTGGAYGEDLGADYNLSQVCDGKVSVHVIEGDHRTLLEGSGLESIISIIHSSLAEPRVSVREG
# Fatty acid synthase [2] = molecular target: T1, Fatty acid synthase; experiment: FAS thioesterase domain inhibitors, dose response, biochemical, kinetic fluorescence intensity (AID 624326); format: functional;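 note: rate of fluorescence rise from hydrolysis of a fluorogenic O-methyl fluorescein ester substrate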
# Cytochrome P450 2C19 = Cytochrome P450 2C19 (Homo sapiens, UniProt P33261); experiment: Cytochrome panel assay with activity outcomes. Panel member name: p450-cyp2c19 Compounds with AC50 equal or less than 10 uM are considered active; format: functional; conditions: read-out: AC50
# Cytochrome P450 2C19, sequence (P33261 whole entry): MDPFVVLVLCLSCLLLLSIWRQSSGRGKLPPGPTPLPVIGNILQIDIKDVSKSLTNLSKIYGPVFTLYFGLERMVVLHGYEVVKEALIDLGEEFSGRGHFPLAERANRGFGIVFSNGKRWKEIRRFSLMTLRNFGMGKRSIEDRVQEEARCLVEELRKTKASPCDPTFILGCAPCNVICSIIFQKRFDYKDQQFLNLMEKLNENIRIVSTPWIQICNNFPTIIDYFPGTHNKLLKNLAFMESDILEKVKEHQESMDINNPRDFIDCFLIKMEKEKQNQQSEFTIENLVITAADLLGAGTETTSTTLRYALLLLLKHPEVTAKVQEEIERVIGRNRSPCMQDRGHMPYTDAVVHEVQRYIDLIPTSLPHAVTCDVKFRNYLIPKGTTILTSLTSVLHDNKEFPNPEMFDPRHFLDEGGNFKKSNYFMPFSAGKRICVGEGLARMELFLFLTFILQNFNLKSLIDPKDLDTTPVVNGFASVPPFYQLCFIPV
# Large T antigen = Large T antigen (Simian virus 40, UniProt P03070); format: functional, Betapolyomavirus macacae;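 note: Confirmatory-stage PubChem screen for compounds that inhibit SV40 T antigen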
# Large T antigen, sequence (P03070 whole entry): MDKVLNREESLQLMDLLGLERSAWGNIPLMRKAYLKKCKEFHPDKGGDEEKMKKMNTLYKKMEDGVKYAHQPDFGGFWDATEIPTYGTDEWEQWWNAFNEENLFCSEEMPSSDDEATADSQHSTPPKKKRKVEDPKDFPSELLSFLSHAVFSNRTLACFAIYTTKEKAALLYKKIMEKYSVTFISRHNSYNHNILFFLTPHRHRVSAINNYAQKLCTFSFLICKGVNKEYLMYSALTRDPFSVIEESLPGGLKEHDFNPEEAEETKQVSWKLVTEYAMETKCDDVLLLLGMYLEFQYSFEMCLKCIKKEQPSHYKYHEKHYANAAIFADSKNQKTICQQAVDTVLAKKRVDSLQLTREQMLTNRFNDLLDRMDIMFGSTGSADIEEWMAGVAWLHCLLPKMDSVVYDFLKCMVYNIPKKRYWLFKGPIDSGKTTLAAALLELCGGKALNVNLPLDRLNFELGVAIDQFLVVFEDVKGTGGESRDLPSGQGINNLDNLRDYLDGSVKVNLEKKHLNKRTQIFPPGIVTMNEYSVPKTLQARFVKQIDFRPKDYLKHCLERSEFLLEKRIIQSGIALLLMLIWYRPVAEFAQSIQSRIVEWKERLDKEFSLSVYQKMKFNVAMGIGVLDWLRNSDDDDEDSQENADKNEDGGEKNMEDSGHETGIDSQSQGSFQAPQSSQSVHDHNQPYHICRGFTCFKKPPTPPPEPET
# [3] = molecular target: T2, Zinc finger protein mex-5 (Caenorhabditis elegans, UniProt Q9XUB2); experiment: MEX-5/TCR-2 RNA interaction inhibitors, dose response, biochemical, C. elegans, fluorescence polarization (AID 1960)
# T2 sequence (Q9XUB2 whole entry): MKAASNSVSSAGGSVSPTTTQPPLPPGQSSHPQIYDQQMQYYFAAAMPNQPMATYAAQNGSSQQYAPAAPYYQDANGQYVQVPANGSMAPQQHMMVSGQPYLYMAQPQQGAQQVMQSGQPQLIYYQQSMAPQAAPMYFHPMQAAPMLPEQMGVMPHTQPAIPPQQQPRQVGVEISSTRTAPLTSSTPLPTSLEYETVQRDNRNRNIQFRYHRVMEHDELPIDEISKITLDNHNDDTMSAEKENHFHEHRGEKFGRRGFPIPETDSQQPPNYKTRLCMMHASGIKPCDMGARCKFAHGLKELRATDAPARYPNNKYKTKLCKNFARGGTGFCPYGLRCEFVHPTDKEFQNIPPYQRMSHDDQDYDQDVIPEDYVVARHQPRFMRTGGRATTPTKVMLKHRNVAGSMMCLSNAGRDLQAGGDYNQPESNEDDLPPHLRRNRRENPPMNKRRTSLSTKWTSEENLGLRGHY
# [4] = molecular target: T3, RNA-binding protein pos-1 (Caenorhabditis elegans, UniProt G5EF15); experiment: inhibitors of POS-1/mex-3 RNA binding, dose response, biochemical, fluorescence polarization (AID 1964);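 note: purified POS-1 fused to maltose binding protein made in E. coli; potency of compounds blocking POS-1 binding to fluorescent RNA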
# T3 sequence (G5EF15 whole entry): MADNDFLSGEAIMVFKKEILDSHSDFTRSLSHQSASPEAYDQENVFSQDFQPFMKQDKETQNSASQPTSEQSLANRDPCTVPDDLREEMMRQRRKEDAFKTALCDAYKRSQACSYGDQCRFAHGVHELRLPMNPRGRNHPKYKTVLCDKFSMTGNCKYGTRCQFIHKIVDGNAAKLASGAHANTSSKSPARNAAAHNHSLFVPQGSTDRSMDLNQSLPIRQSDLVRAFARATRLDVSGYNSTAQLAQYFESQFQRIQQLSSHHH
# [5] = molecular target: T4, Corticotropin-releasing factor receptor 2/Corticotropin-releasing factor-binding protein (Homo sapiens, UniProt P24387+Q13324); experiment: activators of CRF receptor 2 with binding protein – uHTS hits, confirmation (AID 602473); format: functional; conditions: read-out: EC50_Mean
# T4 sequence (Q13324 whole entry): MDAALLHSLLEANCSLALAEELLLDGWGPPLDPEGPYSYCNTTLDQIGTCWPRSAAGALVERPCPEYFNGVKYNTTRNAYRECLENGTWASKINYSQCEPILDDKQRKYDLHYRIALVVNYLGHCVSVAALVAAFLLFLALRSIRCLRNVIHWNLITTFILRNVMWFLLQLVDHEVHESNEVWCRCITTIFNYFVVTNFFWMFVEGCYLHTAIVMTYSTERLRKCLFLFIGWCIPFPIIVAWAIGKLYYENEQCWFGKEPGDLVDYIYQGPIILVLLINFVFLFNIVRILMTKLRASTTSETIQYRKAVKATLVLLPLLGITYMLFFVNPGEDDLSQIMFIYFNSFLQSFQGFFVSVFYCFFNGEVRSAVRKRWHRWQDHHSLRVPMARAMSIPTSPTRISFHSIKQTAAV
# T4 sequence (P24387 whole entry): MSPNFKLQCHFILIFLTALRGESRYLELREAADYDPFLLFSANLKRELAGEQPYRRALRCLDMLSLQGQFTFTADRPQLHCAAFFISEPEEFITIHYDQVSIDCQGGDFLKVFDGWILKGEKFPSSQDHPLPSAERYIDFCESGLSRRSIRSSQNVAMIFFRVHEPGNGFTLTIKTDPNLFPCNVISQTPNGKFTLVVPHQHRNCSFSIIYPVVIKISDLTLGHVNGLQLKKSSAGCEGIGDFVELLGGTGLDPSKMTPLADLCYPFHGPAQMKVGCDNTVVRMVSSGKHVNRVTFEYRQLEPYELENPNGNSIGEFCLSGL
# [6] = Shn3 3'UTR reporter inhibitors, dose response, cell-based, Clone20 osteoblasts, firefly luciferase, cherry-picked (AID 624132); format: functional;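 note: firefly luciferase luminescence from reporter carrying the Shn3 3'UTR in osteoblasts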
# [7] = control 3'UTR Renilla luciferase suppression, dose response, counter-screen for Shn3 inhibitor project, cell-based, Clone20-Shn3RL, cherry-picked (AID 624133); format: functional
# [8] = molecular target: T5, Rac GTPase-activating protein 1 (Homo sapiens, UniProt Q9H0H5); experiment: MgcRacGAP GTPase-activating activity inhibitors, confirmation, biochemical, ADP Hunter fluorescence, primary and confirmatory (AID 624330); format: functional
# T5 sequence (Q9H0H5 whole entry): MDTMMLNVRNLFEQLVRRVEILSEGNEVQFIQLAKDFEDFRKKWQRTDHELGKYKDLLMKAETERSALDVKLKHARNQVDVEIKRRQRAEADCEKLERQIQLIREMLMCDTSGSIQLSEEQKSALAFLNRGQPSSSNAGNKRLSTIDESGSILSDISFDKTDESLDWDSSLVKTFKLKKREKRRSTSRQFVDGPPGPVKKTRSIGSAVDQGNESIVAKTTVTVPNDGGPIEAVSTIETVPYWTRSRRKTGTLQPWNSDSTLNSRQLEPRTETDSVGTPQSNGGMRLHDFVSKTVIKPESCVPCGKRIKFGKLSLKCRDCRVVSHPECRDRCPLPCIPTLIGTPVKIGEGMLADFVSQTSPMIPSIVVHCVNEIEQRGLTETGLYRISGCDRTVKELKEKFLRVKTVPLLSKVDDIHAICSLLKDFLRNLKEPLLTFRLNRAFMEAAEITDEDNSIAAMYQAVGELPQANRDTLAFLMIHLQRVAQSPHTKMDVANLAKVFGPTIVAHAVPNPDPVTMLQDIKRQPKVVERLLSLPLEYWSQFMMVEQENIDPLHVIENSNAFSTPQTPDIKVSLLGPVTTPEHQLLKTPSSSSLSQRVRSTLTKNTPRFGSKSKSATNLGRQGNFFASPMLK
# Cytochrome P450 2D6, sequence (P10635 whole entry): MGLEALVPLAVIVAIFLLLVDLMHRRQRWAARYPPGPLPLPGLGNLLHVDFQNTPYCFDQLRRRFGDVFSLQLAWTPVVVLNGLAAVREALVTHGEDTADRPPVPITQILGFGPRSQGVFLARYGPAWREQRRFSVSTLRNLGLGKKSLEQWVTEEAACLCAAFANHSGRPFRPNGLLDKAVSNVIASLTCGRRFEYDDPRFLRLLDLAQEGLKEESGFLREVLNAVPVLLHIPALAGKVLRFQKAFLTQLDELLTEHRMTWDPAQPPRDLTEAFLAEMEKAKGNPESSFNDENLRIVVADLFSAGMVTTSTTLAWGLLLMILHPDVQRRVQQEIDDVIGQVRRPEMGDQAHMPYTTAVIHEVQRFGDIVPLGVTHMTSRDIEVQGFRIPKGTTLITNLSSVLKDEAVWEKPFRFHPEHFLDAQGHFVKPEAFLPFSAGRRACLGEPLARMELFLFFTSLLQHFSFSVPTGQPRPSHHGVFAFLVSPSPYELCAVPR
# Cytochrome P450 3A4, sequence (P08684 whole entry, the tested form may be a part): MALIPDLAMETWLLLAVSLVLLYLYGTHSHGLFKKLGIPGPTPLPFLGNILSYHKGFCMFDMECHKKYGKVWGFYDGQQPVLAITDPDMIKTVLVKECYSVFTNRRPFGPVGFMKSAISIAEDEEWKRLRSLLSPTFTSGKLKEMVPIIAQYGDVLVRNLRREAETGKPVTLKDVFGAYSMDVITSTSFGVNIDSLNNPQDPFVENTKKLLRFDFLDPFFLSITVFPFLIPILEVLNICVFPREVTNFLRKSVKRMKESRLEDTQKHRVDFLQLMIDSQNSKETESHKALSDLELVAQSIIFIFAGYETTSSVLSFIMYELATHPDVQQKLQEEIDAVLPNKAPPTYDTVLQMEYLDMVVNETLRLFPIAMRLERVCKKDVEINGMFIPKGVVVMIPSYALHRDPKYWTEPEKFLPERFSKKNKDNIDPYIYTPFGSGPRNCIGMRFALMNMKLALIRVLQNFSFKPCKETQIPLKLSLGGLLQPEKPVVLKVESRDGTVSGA
smiles,measurement,setting,value
C=CCN(CC=C)C(=O)C(=O)c1cc(C)n(-c2ccc([N+](=O)[O-])cc2)c1C,AC50,Cytochrome P450 2C9,15.8 µM (inconclusive)
same,AC50,Cytochrome P450 2D6,3.98 µM (inconclusive)
CCOC(=O)CC(=O)CSc1n[nH]c2c3ccccc3nc-2n1,AC50,Cytochrome P450 3A4,2.51 µM (inconclusive)
same,AC50,Cytochrome P450 2D6,3.55 µM (inconclusive)
CCN1C(=O)[C@H]2[C@@H](c3ccc(C)cc3)N3C(=O)N(c4cccc(Cl)c4)C(=O)[C@@]3(Cc3ccc(Cl)cc3)[C@H]2C1=O,IC50,Fatty acid synthase [1],12 µM (active)
same,IC50,Fatty acid synthase [2],16.1 µM (active)
CNc1ncnc2ccc(-c3cccc(NS(C)(=O)=O)c3)cc12,AC50,Cytochrome P450 2C19,20 µM (inconclusive)
same,AC50,Cytochrome P450 2D6,39.8 µM (inconclusive)
CCCCC(=O)NCCc1c(Cc2ccccc2)[nH]c2ccccc12,AC50,Cytochrome P450 2C19,20 µM (inconclusive)
same,AC50,Cytochrome P450 2D6,39.8 µM (inconclusive)
O=C1CC(=O)N(Cc2ccco2)C(=S)N1,IC50,Large T antigen,55.5 µM (active)
Cc1c(N2CCCC2)cc2c(c1NC(=O)c1ccccc1Cl)C(C)(C)CC2(C)C,AC50,Cytochrome P450 3A4,0.631 µM (inconclusive)
same,AC50,Cytochrome P450 2D6,3.16 µM (inconclusive)
CC1CCCN(c2ccc(N)cc2C(N)=O)C1 (stereo not drawn),IC50,Large T antigen,44.6 µM (active)
COc1cc(/C=C2/C(C)=C(C#N)c3nc(N)c(C#N)c(C)c32)ccc1OCC(=O)O,IC50,Large T antigen,89.5 µM (active)
C#CCOC(=O)NC(/C=C/CCCC)c1ccccc1 (stereo not drawn),AC50,Cytochrome P450 2C19,25.1 µM (inconclusive)
same,AC50,Cytochrome P450 2D6,20 µM (inconclusive)
COc1cccc(C(=O)NC2CC3CCCC(C2)N3CC(=O)Nc2ccc(N(C)C)cc2)c1 (stereo not drawn),IC50,Large T antigen,6.24 µM (active)
O=C(O)C(=O)/C(=C\c1cccc2ccccc12)c1ccc2ccccc2n1,EC50,[3],34.2 µM (active)
same,EC50,[4],164 µM (active)
same,EC50,[5],7.6 µM (active)
CCn1c(SCC(=O)Nc2ncc(C(F)(F)F)cc2Cl)nnc1-c1cccc(C)c1,IC50,Fatty acid synthase [1],3.66 µM (active)
same,IC50,Fatty acid synthase [2],3.94 µM (active)
CCCSc1nnc2nc3c(nn12)c1ccccc1n3C,EC50,[3],76.6 µM (active)
same,EC50,[4],> 300 µM (not active)
COc1cc(OC)c(C2CC(=O)N3CN(c4ccccc4C)CSC3=C2C#N)cc1OC (stereo not drawn),IC50,Large T antigen,54.8 µM (active)
O=C(Nc1ccc(O)cc1)c1ccc2c(c1)C(=O)N(N1C(=O)c3ccccc3C1=O)C2=O,IC50,Large T antigen,21.4 µM (active)
COc1ccc(NC2CCCN(C(=O)CCCn3cncn3)C2)cc1 (stereo not drawn),IC50,Large T antigen,52.6 µM (active)
O=C(NCc1ccc2c(c1)OCO2)c1cc([N+](=O)[O-])ccc1N1CCCCC1,IC50,Fatty acid synthase [1],10.5 µM (active)
same,IC50,Fatty acid synthase [2],5.03 µM (active)
CN1C(=O)/C(=C\c2ccc(N3CCCCC3)o2)C(=O)NC1=S,EC50,[3],> 300 µM (not active)
same,EC50,[4],> 300 µM (not active)
FC(F)(F)c1nc(N2CCCC2)ncc1-c1nnnn1-c1ccccc1,AC50,Cytochrome P450 2D6,12.6 µM (inconclusive)
CCOc1ccc(NC(=O)CN(c2ccc([N+](=O)[O-])cc2)S(=O)(=O)c2ccccc2)cc1,IC50,Fatty acid synthase [1],10.5 µM (active)
same,IC50,Fatty acid synthase [2],7.65 µM (active)
CC(C)(C)NS(=O)(=O)c1ccc(NC(=O)NC2CCCCC2)cc1,AC50,Cytochrome P450 2C19,25.1 µM (inconclusive)
same,AC50,Cytochrome P450 2D6,17.8 µM (inconclusive)
COc1ccc([N+](=O)[O-])cc1NC(=O)c1ccc(N(Cc2ccccc2C)S(C)(=O)=O)cc1,IC50,Fatty acid synthase [1],9.88 µM (active)
same,IC50,Fatty acid synthase [2],6.91 µM (active)
Cc1cc2c3c(c1C)C1(C(=O)N3C(C)(C)CC2C)C(C#N)=C(N)OC2=C1C(=O)CC(C)(C)C2 (stereo not drawn),EC50,[3],> 300 µM (not active)
same,EC50,[4],> 300 µM (not active)
CCOC(=O)C1CCN(C(=O)c2ccc(OCC(=O)Nc3cccc(C(F)(F)F)c3)c(OC)c2)CC1,AC50,[6],1.75 µM (active)
same,AC50,[7],4.69 µM (active)
O=C(Cc1ccc(S(=O)(=O)N2CCOCC2)s1)N1CCN(S(=O)(=O)c2ccccc2[N+](=O)[O-])CC1,IC50,Fatty acid synthase [1],0.241 µM (active)
same,IC50,Fatty acid synthase [2],3.36 µM (active)
CCN(CC)C(=O)C1=C(C)N(Cc2ccc(F)cc2)C(=O)C(CC(=O)NC(c2ccccc2)c2ccccc2)C1 (stereo not drawn),IC50,Fatty acid synthase [1],9.6 µM (active)
same,IC50,Fatty acid synthase [2],7.98 µM (active)
Fc1c(F)c(F)c(N/N=C/c2c[nH]c3ccccc23)c(F)c1F,IC50,Fatty acid synthase [1],11.5 µM (active)
same,IC50,Fatty acid synthase [2],12.4 µM (active)
Sc1nnc(COc2ccccc2)n1/N=C/C=C/c1ccco1,IC50,Large T antigen,> 100 µM (active)
CCOc1cc(/C=N/Nc2ncnc(Cl)c2N)ccc1O,IC50,[8],25.2 µM (active)
same,IC50,Large T antigen,6.12 µM (active)
COc1cc(C=C2C(=O)NC(=O)NC2=O)ccc1O,IC50,Large T antigen,28 µM (active)
